From patent US20230398125A1, “TREATING HEPATITIS” (Albireo AB, priority 2022, published 2023)

How the values were obtained:
Mouse IBAT = target: T1, Mouse IBAT (Mus musculus, UniProt P70172); experiment: 3H-taurocholic acid uptake in mouse IBAT-overexpressing cells; format: cell-based; settings: 3H-taurocholic acid transport
T1 construct: expressed in transfected cells; kept under puromycin selection
T1 sequence (P70172 1-348): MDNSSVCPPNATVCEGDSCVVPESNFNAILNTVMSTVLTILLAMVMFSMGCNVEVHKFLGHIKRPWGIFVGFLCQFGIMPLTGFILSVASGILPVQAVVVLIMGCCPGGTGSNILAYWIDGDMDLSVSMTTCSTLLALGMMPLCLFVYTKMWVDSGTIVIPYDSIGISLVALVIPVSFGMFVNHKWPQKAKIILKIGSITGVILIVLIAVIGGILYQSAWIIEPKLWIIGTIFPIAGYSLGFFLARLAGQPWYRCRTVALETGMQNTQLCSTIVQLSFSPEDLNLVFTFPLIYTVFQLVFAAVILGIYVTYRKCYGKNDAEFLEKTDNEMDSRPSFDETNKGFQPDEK
Procedure: 10,000 cells (Human & Mouse IBAT-overexpressing cells) were seeded in 96-wells plate in 100 μL MEM-alpha medium supplemented with 10% FBS containing puromycin (10 μg/mL) and incubated at 37° C. in 5% CO2 for 48 hrs. After incubation media was decanted from the wells, cells were washed two times with 250 μL of basal MEM-alpha medium (FBS-free). After each wash, plates were tapped against paper towel to ensure maximum removal of residual media. Test inhibitor dilutions (highest test concentration being 10 μM, 3-fold serial dilution, 10 concentrations) prepared in DMSO were added to the incubation mix (maintaining 0.2% final DMSO concentration) containing 0.25 μM ^3H-taurocholic acid and 5 μM of cold taurocholic acid. […]
After incubation, the reaction was stopped by keeping the plates on ice water mix for 2-3 minutes and then the incubation mix was aspirated completely from the wells. […] 100 μL of MicroScint-20 was added to the wells and kept overnight at room temperature before reading the plates in MicroBeta2 liquid Scintillation Counter from PerkinElmer under ^3H Test for I/L-BAT protocol (set at 120 seconds reading time per well, with normal plate orientation).
Percentage inhibitions were calculated with respect to the assay controls. […]

[1] = Body weight, mortality and observations in HBV-infected PXB mice; format: in vivo; settings: 10 and 30 mg/kg

CCCCC1CN(c2ccccc2)c2cc(SC)c(O/C=C(\F)C(=O)O)cc2S(=O)(=O)N1C (centres unmarked) [Compound 1, (Z)-3-((3-butyl-2-methyl-7-(methylthio)-1,1-dioxido-5-phenyl-2,3,4,5-tetrahydro-1,2,5-benzothiadiazepin-8-yl)oxy)-2-fluoroacrylic acid]
IC50 (Mouse IBAT): 40.8 ± 4.6 nM
observations related to treatment [1]: No noteworthy observations
